Test results reported in patent US10093623B2, “Cyclic amides as MetAP-2 inhibitors” (MERCK PATENT GmbH, priority 2012, dated 2018).

What follows are compounds tested against MetAP-2 (Homo sapiens, UniProt P50579) (assay: MetAP-2 activity measurement (coupled enzymatic reactions, Met-Arg-Ser substrate, dianisidine detection at 450 nm)). Conditions: Inhibition of MetAP-2; read-out: IC50 enzyme.
Sequence of MetAP-2 (P50579 whole entry, species assumed): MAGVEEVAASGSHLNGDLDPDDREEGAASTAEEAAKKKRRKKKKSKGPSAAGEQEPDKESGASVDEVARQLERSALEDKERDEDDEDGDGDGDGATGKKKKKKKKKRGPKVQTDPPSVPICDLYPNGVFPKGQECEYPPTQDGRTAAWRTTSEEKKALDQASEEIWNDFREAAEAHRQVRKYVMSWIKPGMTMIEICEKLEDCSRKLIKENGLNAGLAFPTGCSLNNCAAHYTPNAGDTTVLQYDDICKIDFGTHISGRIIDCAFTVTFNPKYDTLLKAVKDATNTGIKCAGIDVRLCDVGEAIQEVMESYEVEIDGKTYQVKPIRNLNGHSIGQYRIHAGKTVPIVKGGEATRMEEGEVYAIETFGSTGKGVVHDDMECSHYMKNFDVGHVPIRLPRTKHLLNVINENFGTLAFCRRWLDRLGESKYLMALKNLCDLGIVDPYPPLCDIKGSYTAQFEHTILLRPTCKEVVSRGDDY
Type: biochemical
Protocol: MetAP-2 Activity Measurement
The MetAP-2 activity is determined by coupling enzymatic reactions. The tripeptide Met-Arg-Ser (MAS) is employed as substrate. The methionine liberated is firstly converted into Metox and H2O2 by L-aminooxidase (AAO). In the second step, the peroxidase (POD) with the aid of the H2O2 catalyses the oxidation of the leukodye dianisidine to dianisidineox, the increase of which is detected photometrically at 450 nm.
MetAP-2 activity can be recorded continuously as kinetics. The reaction scheme illustrates that one mol of dianisidineox is formed per mol of methionene. The MetAP-2 enzyme activity can therefore be calculated directly as A absorption per time unit. Qualification of the MetAP-2 activity (mol of Met/time unit) is possible with the aid of the dianisidineox extinction coefficient.
The change in extinction per time unit is depicted graphically and a slope calculation is carried out in the visually linear region of the reaction.
With `O=C(N1CCN(CCO)CC1)[C@@]1(O)CCN(c2ccccc2)C1=O` [A57, (S)-3-Hydroxy-3-[4-(2-hydroxy-ethyl)piperazine-1-carbonyl]-1-phenylpyrrolidin-2-one] the IC50 was greater than 10000 nM. Work on `O=C(NCCCn1ccnc1)[C@@]1(O)CCN(c2ccccc2)C1=O` [A58, N-(3-Imidazol-1-ylpropyl)-(S)-3-hydroxy-2-oxo-1-phenylpyrrolidine-3-carboxamide] yielded an IC50 greater than 10000 nM. Work on `CN(C)CCNC(=O)[C@@]1(O)CCN(c2ccccc2)C1=O` [A59, N-(2-Dimethylaminoethyl)-(S)-3-hydroxy-2-oxo-1-phenylpyrrolidine-3-carboxamide] yielded an IC50 greater than 10000 nM. `O=C(NCCc1ccc(Oc2ccccc2)cc1)[C@@]1(O)CCN(c2ccccc2)C1=O` [A60, N-[2-(4-Phenoxyphenyl)ethyl]-(S)-3-hydroxy-2-oxo-1-phenyl-pyrrolidine-3-carboxamide] showed an IC50 greater than 10000 nM. Compound `CN(C)CCN(C)C(=O)[C@@]1(O)CCN(c2ccccc2)C1=O` [A61] has an IC50 greater than 10000 nM. With `O=C(CNC(=O)[C@@]1(O)CCN(c2ccccc2)C1=O)N1CCOCC1` [A62, N-(2-Morpholin-4-yl-2-oxoethyl)-(S)-3-hydroxy-2-oxo-1-phenyl-pyrrolidine-3-carboxamide] the IC50 was greater than 10000 nM. `CN1CCCC1CCNC(=O)[C@@]1(O)CCN(c2ccccc2)C1=O` (stereo partly drawn) [A63, N-[2-(1-Methylpyrrolidin-2-yl)ethyl]-(S)-3-hydroxy-2-oxo-1-phenyl-pyrrolidine-3-carboxamide] showed an IC50 greater than 10000 nM. `CN(C)CCCNC(=O)[C@@]1(O)CCN(c2ccccc2)C1=O` [A64, N-(3-Dimethylaminopropyl)-(S)-3-hydroxy-2-oxo-1-phenylpyrrolidine-3-carboxamide] was tested, and the IC50 was greater than 10000 nM. `O=C(NCc1cc(F)cc(Cl)c1)C1(O)CCCN(c2ccccc2)C1=O` (stereo not shown) [A65, N-(3-Chloro-5-fluorobenzyl)-3-hydroxy-2-oxo-1-phenylpiperidine-3-carboxamide] gave an IC50 of 10 to 1000 nM. Compound `O=C(NCc1cc(F)cc(Cl)c1)[C@@]1(O)CCCCN(c2ccccc2)C1=O` [A66, N-(3-chloro-5-fluorobenzyl)-(S)-3-hydroxy-2-oxo-1-phenylazepane-3-carboxamide] has an IC50 of 1000 to 10000 nM. Work on `O=C(NCc1cc(F)cc(Cl)c1)[C@]1(O)CCCCN(c2ccccc2)C1=O` [A67, N-(3-chloro-5-fluorobenzyl)-(R)-3-hydroxy-2-oxo-1-phenylazepane-3-carboxamide] yielded an IC50 greater than 10000 nM. With `O=C(NCc1cc(F)cc(Cl)c1)C1(O)CCN(c2ccc3cc[nH]c3c2)C1=O` (stereo not shown) [A68, N-(3-Chloro-5-fluorobenzyl)-3-hydroxy-1-(1H-indol-6-yl)-2-oxo-pyrrolidine-3-carboxamide] the IC50 was 10 to 1000 nM. In the case of `NC(=O)c1cccc(NC(=O)c2cccc(N3CCC(O)(C(=O)NCc4cc(F)cc(Cl)c4)C3=O)c2)c1` (stereo not shown) [A69, N-(3-Chloro-5-fluorobenzyl)-1-[3-(3-carbamoylphenylcarbamoyl)-phenyl]-3-hydroxy-2-oxo-pyrrolidine-3-carboxamide], the IC50 is reported as 10 to 1000 nM. For `C/C=C/C(=O)[C@@]1(O)CCN(c2ccccc2)C1=O` [A70, (S)-3-((E)-but-2-enoyl)-3-hydroxy-1-phenylpyrrolidin-2-one], the IC50 was greater than 10000 nM. `CC(=O)N1CCC2(CC1)CN(c1ccccc1)C(=O)[C@@]2(O)C(=O)NCc1cc(F)cc(Cl)c1` [A71, N-(3-Chloro-5-fluorobenzyl)-(S)-8-acetyl-4-hydroxy-3-oxo-2-phenyl-2,8-diazaspiro[4.5]decane-4-carboxamide] was tested, and the IC50 was greater than 10000 nM. Compound `O=C(c1cccc(N2CC[C@](O)(C(=O)NCc3cc(F)cc(Cl)c3)C2=O)c1)N1CCOCC1` [A72, N-(3-Chloro-5-fluorobenzyl)-(S)-3-hydroxy-1-[3-(morpholine-4-carbonyl)phenyl]-2-oxopyrrolidine-3-carboxamide] has an IC50 of 10 to 1000 nM. For `CN(c1cccc(N2CCC(O)(C(=O)NCc3cc(F)cc(Cl)c3)C2=O)c1)S(C)(=O)=O` (stereo not shown) [A73, N-(3-Chloro-5-fluorobenzyl)-3-hydroxy-1-[3-(methanesulfonyl-methylamino)phenyl]-2-oxo-pyrrolidine-3-carboxamide], the IC50 was 10 to 1000 nM. For `O=C(c1cccc(N2CC[C@@](O)(C(=O)NCc3cc(F)cc(Cl)c3)C2=O)c1)N1CCOCC1` [A74, N-(3-Chloro-5-fluorobenzyl)-(R)-3-hydroxy-1-[3-(morpholine-4-carbonyl)phenyl]-2-oxopyrrolidine-3-carboxamide], the IC50 was greater than 10000 nM. In the case of `O=C(NC1CC1)c1cccc(N2CC[C@](O)(C(=O)NCc3cc(F)cc(Cl)c3)C2=O)c1` [A75, N-(3-Chloro-5-fluorobenzyl)-(S)-1-(3-cyclopropylcarbamoylphenyl)-3-hydroxy-2-oxopyrrolidine-3-carboxamide], the IC50 is reported as 10 to 1000 nM. `O=C(NC1CCC1)c1cccc(N2CCC(O)(C(=O)NCc3cc(F)cc(Cl)c3)C2=O)c1` (stereo not shown) [A76, N-(3-Chloro-5-fluorobenzyl)-1-(3-cyclobutylcarbamoylphenyl)-3-hydroxy-2-oxopyrrolidine-3-carboxamide] was tested, and the IC50 was 10 to 1000 nM. `O=C(c1cccc(N2CC[C@](O)(C(=O)NCc3cc(F)cc(Cl)c3)C2=O)c1)N1CCCC1` [A77, N-(3-Chloro-5-fluorobenzyl)-(S)-3-hydroxy-2-oxo-1-[3-(pyrrolidine-1-carbonyl)phenyl]pyrrolidine-3-carboxamide] showed an IC50 of 10 to 1000 nM. `CCC(=O)Nc1ccc(N2CCC(O)(C(=O)NCc3cc(F)cc(Cl)c3)C2=O)cn1` (stereo not shown) [A78, N-(3-Chloro-5-fluorobenzyl)-3-hydroxy-2-oxo-1-(6-propionylaminopyridin-3-yl)-pyrrolidine-3-carboxamide] was tested, and the IC50 was 10 to 1000 nM. With `CCS(=O)(=O)Nc1cccc(N2CC[C@](O)(C(=O)NCc3cc(F)cc(Cl)c3)C2=O)c1` [A79, N-(3-Chloro-5-fluorobenzyl)-(S)-1-(3-ethanesulfonylaminophenyl)-3-hydroxy-2-oxopyrrolidine-3-carboxamide] the IC50 was 10 to 1000 nM. Compound `O=C(NCc1cc(F)cc(Cl)c1)[C@@]1(O)CCN(c2cccc(NS(=O)(=O)C3CC3)c2)C1=O` [A80, N-(3-Chloro-5-fluorobenzyl)-(S)-1-(3-cyclopropanesulfonylamino-phenyl)-3-hydroxy-2-oxo-pyrrolidine-3-carboxamide] has an IC50 of 10 to 1000 nM. Work on `O=C(NCc1cc(F)cc(Cl)c1)[C@@]1(O)CCCN(Cc2ccccc2)C1=O` [A81, N-(3-Chloro-5-fluorobenzyl)-(S)-1-benzyl-3-hydroxy-2-oxopiperidine-3-carboxamide] yielded an IC50 of 10 to 1000 nM. `O=C(NC1CC1)c1cccc(N2CC[C@@](O)(C(=O)NCc3cc(F)cc(Cl)c3)C2=O)c1` [A82, N-(3-Chloro-5-fluorobenzyl)-(R)-1-(3-cyclopropylcarbamoylphenyl)-3-hydroxy-2-oxopyrrolidine-3-carboxamide] gave an IC50 of 1000 to 10000 nM. Compound `O=C(c1cccc(N2CC[C@@](O)(C(=O)NCc3cc(F)cc(Cl)c3)C2=O)c1)N1CCCC1` [A83, N-(3-Chloro-5-fluorobenzyl)-(R)-3-hydroxy-2-oxo-1-[3-(pyrrolidine-1-carbonyl)phenyl]pyrrolidine-3-carboxamide] has an IC50 greater than 10000 nM. `CCS(=O)(=O)Nc1cccc(N2CC[C@@](O)(C(=O)NCc3cc(F)cc(Cl)c3)C2=O)c1` [A84, N-(3-Chloro-5-fluorobenzyl)-(R)-1-(3-ethanesulfonylaminophenyl)-3-hydroxy-2-oxopyrrolidine-3-carboxamide] gave an IC50 of 1000 to 10000 nM. `O=C(NCc1cc(F)cc(Cl)c1)[C@]1(O)CCN(c2cccc(NS(=O)(=O)C3CC3)c2)C1=O` [A85, N-(3-Chloro-5-fluorobenzyl)-(R)-1-(3-cyclopropanesulfonylamino-phenyl)-3-hydroxy-2-oxo-pyrrolidine-3-carboxamidee] showed an IC50 greater than 10000 nM. `O=C(NCc1cc(F)cc(Cl)c1)[C@]1(O)CCCN(Cc2ccccc2)C1=O` [A86, N-(3-Chloro-5-fluorobenzyl)-(R)-1-benzyl-3-hydroxy-2-oxo-piperidine-3-carboxamide] showed an IC50 greater than 10000 nM. In the case of `N#Cc1c[nH]c2ccc(N3CCC(O)(C(=O)NCc4cc(F)cc(Cl)c4)C3=O)cc12` (stereo not shown) [A87, N-(3-Chloro-5-fluorobenzyl)-1-(3-cyano-1H-indol-5-yl)-3-hydroxy-2-oxopyrrolidine-3-carboxamide], the IC50 is reported as 10 to 1000 nM. Work on `O=C(NCCO)c1cccc(N2CC[C@](O)(C(=O)NCc3cc(F)cc(Cl)c3)C2=O)c1` [A88, N-(3-Chloro-5-fluorobenzyl)-(S)-3-hydroxy-1-[3-(2-hydroxy-ethylcarbamoyl)phenyl]-2-oxo-pyrrolidine-3-carboxamide] yielded an IC50 of 10 to 1000 nM. Work on `C=C(Cc1ccccc1)C(=O)C1(O)CCN(c2ccccc2)C1=O` (stereo not shown) [A89, 3-(2-benzylacryloyl)-3-hydroxy-1-phenylpyrrolidin-2-one] yielded an IC50 greater than 10000 nM. Compound `O=C(NCc1cc(F)cc(Cl)c1)[C@@]1(O)CCN(CCc2ccccc2)C1=O` [A90, N-(3-Chloro-5-fluorobenzyl)-(S)-3-hydroxy-2-oxo-1-phenethyl-pyrrolidine-3-carboxamide] has an IC50 of 10 to 1000 nM. `O=C(NCCO)c1cccc(N2CC[C@@](O)(C(=O)NCc3cc(F)cc(Cl)c3)C2=O)c1` [A91, N-(3-Chloro-5-fluorobenzyl)-(R)-3-hydroxy-1-[3-(2-hydroxy-ethylcarbamoyl)phenyl]-2-oxo-pyrrolidine-3-carboxamide] gave an IC50 greater than 10000 nM. Compound `O=C(NCc1cc(F)cc(Cl)c1)[C@]1(O)CCN(CCc2ccccc2)C1=O` [A92, N-(3-Chloro-5-fluorobenzyl)-(R)-3-hydroxy-2-oxo-1-phenethyl-pyrrolidine-3-carboxamide] has an IC50 of 1000 to 10000 nM. `CN(CCO)C(=O)c1cccc(N2CC[C@](O)(C(=O)NCc3cc(F)cc(Cl)c3)C2=O)c1` [A93, N-(3-Chloro-5-fluorobenzyl)-(S)-3-hydroxy-1-{3-[(2-hydroxy-ethyl)methylcarbamoyl]phenyl}-2-oxopyrrolidine-3-carboxamide] gave an IC50 of 1000 to 10000 nM.
